Experimental data: PubChem BioAssay (NCI)
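Where inhibition never reached the appropriate level, the endpoint shown equals the highest concentration tested. Otherwise, values were interpolated linearly from a five-concentration, 48-hour dose response in 96-well plates. Here, GI50 denotes the concentration required for 50% inhibition of growth. TGI is the concentration that stops growth completely.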

Assays:
Experiment in all cases: NCI anticancer screen, dose series, 48 h
[1] = tested on: A498 renal
[2] = tested on: SF-295 CNS
[3] = tested on: KM12 colon
[4] = tested on: U251 CNS
[5] = tested on: HL-60(TB) leukemia
[6] = tested on: SW-620 colon
[7] = tested on: OVCAR-4 ovarian
[8] = tested on: COLO 205 colon
[9] = tested on: NCI-H226 lung
[10] = tested on: HS 578T breast

SMILES	TGI [1] [µM]	TGI [2] [µM]	TGI [3] [µM]	TGI [4] [µM]	TGI [5] [µM]	TGI [6] [µM]	TGI [7] [µM]	TGI [8] [µM]	TGI [9] [µM]	GI50 [1] [µM]	GI50 [2] [µM]	GI50 [3] [µM]	GI50 [4] [µM]	GI50 [5] [µM]	GI50 [6] [µM]	GI50 [8] [µM]	GI50 [10] [µM]	TGI [10] [µM]	GI50 [9] [µM]	GI50 [7] [µM]
CCCCCCCCCCCCCCCCc1c(C(=O)OC)nc(NC#N)[nH]c1=O	> 25	> 25	> 25	> 25	> 25	> 25	> 25	> 25	> 25	–	–	–	–	–	–	–	–	–	–	–
C=CC12CCCCC1CC(C(=O)OC)=C(O)C2 (stereo not given)	–	> 100	> 100	> 100	> 100	> 100	> 100	> 100	> 100	–	–	–	–	–	–	–	–	–	–	–
CCCCCSc1ccc2nc(NC(=O)OCC)sc2c1	7.88	10.6	> 100	11	> 100	> 100	–	> 100	> 100	1.22	0.394	0.409	0.41	0.351	0.453	0.53	0.944	> 100	1.95	–
COC(=O)c1c2c(c(C)[n+]([O-])c1C)C(=O)C(NCc1ccccc1)=CC2=O	16.1	7.5	9.6	7.11	–	10.6	2.4	2.67	9.9	4.72	2.6	2.4	2.46	–	3.12	0.977	7	82.4	2.81	1.13
N#CC(Sc1ccccc1)C(N)=O (stereo not given)	> 100	> 100	> 100	> 100	> 100	> 100	> 100	> 100	> 100	–	–	–	–	–	–	–	–	–	–	–
CCCCCCCCCCCCCCCCn1cc[n+](C)c1	0.76	1.43	0.756	1.53	0.321	1.78	17.8	–	–	0.109	0.318	0.264	0.356	0.129	0.468	0.27	0.383	1.75	–	0.372
COc1cc(OC)c(C(=O)/C=C/c2ccc(C#N)cc2)c(OC)c1	3.95	8.81	6.55	7.05	–	7.22	> 50	7.38	> 50	1.33	1.72	1.58	1.81	–	1.84	1.82	1.93	> 50	2.67	1.63
COc1cc2c3c(n(CCCN=[N+]=[N-])c(=O)c2cc1OC)-c1ccccc1C3=O	–	9.86	> 100	24.5	–	> 100	> 100	–	–	–	2.87	> 100	1.61	–	12	–	–	–	–	22.6
COc1ccc(OC)c(N2CC(O)=C(c3nc4ccccc4s3)C2=N)c1	59.6	> 100	> 100	> 100	–	> 100	> 100	> 100	> 100	18.9	60.9	39.1	51.5	–	32.7	47.3	34.5	> 100	56.9	45.6
CC1OC(n2cc(F)c(=O)[nH]c2=O)CCC1=O (stereo not given)	> 100	> 100	> 100	> 100	> 100	> 100	> 100	> 100	> 100	–	–	–	–	–	–	–	–	–	–	–
c1cc[c]([Ge]([O]c2cccc3cccnc23)([c]2ccccc2)[c]2ccccc2)cc1	25.7	23.8	5.09	13.4	–	7.46	13.1	14.9	23	13	11.2	1.95	3.83	–	3.02	4.8	–	–	6.33	3.11
COc1ccc(-c2cnc(-c3ccc(OC)cc3)n2-c2cc(OC)c(OC)c(OC)c2)cc1	39.5	61.1	> 100	69.2	–	> 100	58.3	> 100	> 100	12.1	22.1	34.9	24.4	–	> 100	56	22.9	64.2	36.7	33.5
O=CCCn1[nH]c(=O)ccc1=O	> 100	> 100	–	> 100	> 100	> 100	> 100	–	> 100	–	–	–	–	–	–	–	–	–	–	–
COc1ccc(C)c2sc(N(Cc3cccnc3)C(=O)c3ccc(C#N)cc3)nc12	95.5	> 100	> 100	> 100	> 100	> 100	–	70	> 100	2.21	51.8	34.6	42.3	31.1	54.2	24.7	50.2	> 100	54.4	–
O=S1Nc2cccc(C(F)(F)F)c2S1 (stereo not given)	97.3	> 100	59.9	> 100	31.8	23.8	> 100	35.8	> 100	–	–	–	–	–	–	–	–	–	–	–
CCCCCN(CCCCC)CCC[C@@H](C)[C@H]1CC[C@H]2[C@@H]3[C@H](OCCCN)C[C@@H]4C[C@H](OCCCN)CC[C@]4(C)[C@H]3C[C@H](OCCCN)[C@]12C	60.7	21.8	17	18.4	5.81	20.2	32.6	22.8	24.8	10.2	3.03	3.59	4.53	2.14	4.79	5.89	–	–	5.11	14.3
